system: rabbit skeletal myofibrils (fast skeletal myofibrils); assay: Activation of fast skeletal myofibrils (PUMA assay, AC1.4); type: biochemical; conditions: calcium at pCa25, AC1.4 = concentration at which the compound increased the enzymatic activity
Summary of the method: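 In 12 mM PIPES pH 6.8 with 2 mM MgCl2 and 1 mM DTT, Triton-washed rabbit skeletal myofibrils were run at the pCa25 calcium level. Myosin-made ADP was recycled through a PK/LDH coupled system; NADH loss read at 340 nm.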

Row | Structure (SMILES) | AC1.4
1 | CC(C)[C@H]1C(=O)Nc2ccccc2CN1c1c(N)c(=O)c1=O [Compound 334, (S)-3-amino-4-(3-isopropyl-2-oxo-1,2,3,5-tetrahydro-4H-benzo[e][1,4]diazepin-4-yl)cyclobut-3-ene-1,2-dione] | 0.65 µM
2 | CNC(=O)N1Cc2ccccc2NC(=O)[C@@H]1C(C)C [Compound 335, (S)-3-isopropyl-N-methyl-2-oxo-1,2,3,5-tetrahydro-4H-benzo[e][1,4]diazepine-4-carboxamide] | 3.75 µM
3 | CC[C@H](C)[C@H]1C(=O)Nc2cccc(F)c2CN1/C(N)=N\C#N [Compound 336, (S,Z)-3-((S)-sec-butyl)-N′-cyano-6-fluoro-2-oxo-1,2,3,5-tetrahydro-4H-benzo[e][1,4]diazepine-4-carboximidamide] | 0.12 µM
4 | CC[C@H](C)[C@H]1C(=O)Nc2cccc(F)c2CN1C(=O)N1CC(O)C1 [Compound 337, (S)-3-((S)-sec-butyl)-6-fluoro-4-(3-hydroxyazetidine-1-carbonyl)-1,3,4,5-tetrahydro-2H-benzo[e][1,4]diazepin-2-one] | 0.72 µM
5 | CC[C@H](C)[C@H]1C(=O)Nc2cccc(F)c2CN1C(=O)NC [Compound 338, (S)-3-((S)-sec-butyl)-6-fluoro-N-methyl-2-oxo-1,2,3,5-tetrahydro-4H-benzo[e][1,4]diazepine-4-carboxamide] | 0.69 µM
6 | CC[C@H](C)[C@H]1C(=O)Nc2cccc(F)c2CN1C(=O)CCO [Compound 339, (S)-3-((S)-sec-butyl)-6-fluoro-4-(3-hydroxypropanoyl)-1,3,4,5-tetrahydro-2H-benzo[e][1,4]diazepin-2-one] | 2.79 µM
7 | CC[C@H](C)[C@H]1C(=O)Nc2cccc(F)c2CN1C(=O)N1CC[C@H](O)C1 [Compound 340, (S)-3-((S)-sec-butyl)-6-fluoro-4-((S)-3-hydroxypyrrolidine-1-carbonyl)-1,3,4,5-tetrahydro-2H-benzo[e][1,4]diazepin-2-one] | 3.00 µM
8 | CC[C@H](C)[C@H]1C(=O)Nc2ccc(F)cc2CN1C(=O)CO [Compound 341, (S)-3-((S)-sec-butyl)-7-fluoro-4-(2-hydroxyacetyl)-1,3,4,5-tetrahydro-2H-benzo[e][1,4]diazepin-2-one] | 2.37 µM
9 | CC[C@H](C)[C@H]1C(=O)Nc2ccc(F)cc2CN1C(=O)c1cn[nH]c1 [Compound 342, (S)-3-((S)-sec-butyl)-7-fluoro-4-(1H-pyrazole-4-carbonyl)-1,3,4,5-tetrahydro-2H-benzo[e][1,4]diazepin-2-one] | 0.27 µM
10 | CC[C@H](C)[C@H]1C(=O)Nc2ccc(F)cc2CN1C(=O)c1ncn[nH]1 [Compound 343, (S)-3-((S)-sec-butyl)-7-fluoro-4-(1H-1,2,4-triazole-5-carbonyl)-1,3,4,5-tetrahydro-2H-benzo[e][1,4]diazepin-2-one] | 0.25 µM
11 | CC[C@H](C)[C@H]1C(=O)Nc2ccc(F)cc2CN1C(=O)c1cccc(=O)[nH]1 [Compound 344, (S)-3-((S)-sec-butyl)-7-fluoro-4-(6-oxo-1,6-dihydropyridine-2-carbonyl)-1,3,4,5-tetrahydro-2H-benzo[e][1,4]diazepin-2-one] | 1.91 µM
12 | CC[C@H](C)[C@H]1C(=O)Nc2ccc(F)cc2CN1S(N)(=O)=O [Compound 345, (S)-3-((S)-sec-butyl)-7-fluoro-2-oxo-1,2,3,5-tetrahydro-4H-benzo[e][1,4]diazepine-4-sulfonamide] | 2.43 µM
13 | CC[C@H](C)[C@H]1C(=O)Nc2ccc(F)cc2CN1C(=O)N1CC(C)(O)C1 [Compound 346, (S)-3-((S)-sec-butyl)-7-fluoro-4-(3-hydroxy-3-methylazetidine-1-carbonyl)-1,3,4,5-tetrahydro-2H-benzo[e][1,4]diazepin-2-one] | 1.57 µM
14 | CC[C@H](C)[C@H]1C(=O)Nc2ccc(F)cc2CN1C(=O)N1CC[C@H](O)C1 [Compound 347, (S)-3-((S)-sec-butyl)-7-fluoro-4-((S)-3-hydroxypyrrolidine-1-carbonyl)-1,3,4,5-tetrahydro-2H-benzo[e][1,4]diazepin-2-one] | 3.59 µM
15 | CC[C@H](C)[C@H]1C(=O)Nc2ccc(F)cc2CN1C(=O)NC [Compound 348, (S)-3-((S)-sec-butyl)-7-fluoro-N-methyl-2-oxo-1,2,3,5-tetrahydro-4H-benzo[e][1,4]diazepine-4-carboxamide] | 0.72 µM
16 | CC[C@H](C)[C@H]1C(=O)Nc2ccc(F)cc2CN1C(=O)N[C@H]1CCN(CCO)C1 [Compound 349, (S)-3-((S)-sec-butyl)-7-fluoro-N-((S)-1-(2-hydroxyethyl)pyrrolidin-3-yl)-2-oxo-1,2,3,5-tetrahydro-4H-benzo[e][1,4]diazepine-4-carboxamide] | 1.57 µM

Row | Structure (SMILES) | AC1.4
17 | CC[C@H](C)[C@H]1C(=O)Nc2ccc(F)cc2CN1C(=O)N[C@H]1CCN(C)C1 [Compound 350, (S)-3-((S)-sec-butyl)-7-fluoro-N-((S)-1-methylpyrrolidin-3-yl)-2-oxo-1,2,3,5-tetrahydro-4H-benzo[e][1,4]diazepine-4-carboxamide] | 1.11 µM
18 | CC[C@H](C)[C@H]1C(=O)Nc2ccc(F)cc2CN1C(=O)NC1CCN(CCO)CC1 [Compound 351, (S)-3-((S)-sec-butyl)-7-fluoro-N-(1-(2-hydroxyethyl)piperidin-4-yl)-2-oxo-1,2,3,5-tetrahydro-4H-benzo[e][1,4]diazepine-4-carboxamide] | 1.17 µM
19 | CC[C@H](C)[C@H]1C(=O)Nc2ccc(F)cc2CN1C(=O)N[C@H]1CC[C@H](O)CC1 [Compound 352, (S)-3-((S)-sec-butyl)-7-fluoro-N-((1r,4S)-4-hydroxycyclohexyl)-2-oxo-1,2,3,5-tetrahydro-4H-benzo[e][1,4]diazepine-4-carboxamide] | 0.73 µM
20 | CC[C@H](C)[C@H]1C(=O)Nc2ccc(F)cc2CN1C(=O)N[C@H]1CC[C@H](O)C1 [Compound 353, (S)-3-((S)-sec-butyl)-7-fluoro-N-((1S,3S)-3-hydroxycyclopentyl)-2-oxo-1,2,3,5-tetrahydro-4H-benzo[e][1,4]diazepine-4-carboxamide] | 1.76 µM
21 | CC[C@H](C)[C@H]1C(=O)Nc2ccc(F)cc2CN1C(=O)N[C@H]1C[C@H](O)C1 [Compound 354, (S)-3-((S)-sec-butyl)-7-fluoro-N-((1r,3S)-3-hydroxycyclobutyl)-2-oxo-1,2,3,5-tetrahydro-4H-benzo[e][1,4]diazepine-4-carboxamide] | 1.59 µM
22 | CC[C@H](C)[C@H]1C(=O)Nc2ccc(F)cc2CN1C(=O)N[C@H]1C[C@@H](O)C1 [Compound 355, (S)-3-((S)-sec-butyl)-7-fluoro-N-((1s,3R)-3-hydroxycyclobutyl)-2-oxo-1,2,3,5-tetrahydro-4H-benzo[e][1,4]diazepine-4-carboxamide] | 1.49 µM
23 | CC[C@H](C)[C@H]1C(=O)Nc2cc(F)ccc2CN1C(=O)NC1CCN(CCO)CC1 [Compound 356, (S)-3-((S)-sec-butyl)-8-fluoro-N-(1-(2-hydroxyethyl)piperidin-4-yl)-2-oxo-1,2,3,5-tetrahydro-4H-benzo[e][1,4]diazepine-4-carboxamide] | 0.24 µM
24 | CC[C@H](C)[C@H]1C(=O)Nc2cc(F)ccc2CN1C(=O)N[C@H]1CCN(C)C1 [Compound 358, (S)-3-((S)-sec-butyl)-8-fluoro-N-((S)-1-methylpyrrolidin-3-yl)-2-oxo-1,2,3,5-tetrahydro-4H-benzo[e][1,4]diazepine-4-carboxamide] | 0.40 µM
25 | CC[C@H](C)[C@H]1C(=O)Nc2cc(F)ccc2CN1C(=O)N1CC[C@H](O)C1 [Compound 359, (S)-3-((S)-sec-butyl)-8-fluoro-4-((S)-3-hydroxypyrrolidine-1-carbonyl)-1,3,4,5-tetrahydro-2H-benzo[e][1,4]diazepin-2-one] | 0.77 µM
26 | CC[C@H](C)[C@H]1C(=O)Nc2cc(F)ccc2CN1C(=O)NC1CCN(C2COC2)CC1 [Compound 360, (S)-3-((S)-sec-butyl)-8-fluoro-N-(1-(oxetan-3-yl)piperidin-4-yl)-2-oxo-1,2,3,5-tetrahydro-4H-benzo[e][1,4]diazepine-4-carboxamide] | 0.37 µM
27 | CC[C@H](C)[C@H]1C(=O)Nc2cncc(F)c2CN1C(C)=O [Compound 361, (S)-4-acetyl-3-((S)-sec-butyl)-6-fluoro-1,3,4,5-tetrahydro-2H-pyrido[3,4-e][1,4]diazepin-2-one] | 1.62 µM
28 | CC[C@H](C)[C@H]1C(=O)Nc2cncc(F)c2CN1C(=O)CO [Compound 362, (S)-3-((S)-sec-butyl)-6-fluoro-4-(2-hydroxyacetyl)-1,3,4,5-tetrahydro-2H-pyrido[3,4-e][1,4]diazepin-2-one] | 1.68 µM
29 | CC[C@H](C)[C@H]1C(=O)Nc2cncc(F)c2CN1C(=O)COC [Compound 363, (S)-3-((S)-sec-butyl)-6-fluoro-4-(2-methoxyacetyl)-1,3,4,5-tetrahydro-2H-pyrido[3,4-e][1,4]diazepin-2-one] | 2.60 µM
30 | CC[C@H](C)[C@H]1C(=O)Nc2cncc(F)c2CN1C(=O)OC [Compound 364, methyl (S)-3-((S)-sec-butyl)-6-fluoro-2-oxo-1,2,3,5-tetrahydro-4H-pyrido[3,4-e][1,4]diazepine-4-carboxylate] | 3.31 µM
31 | CC[C@H](C)[C@H]1C(=O)Nc2cncc(F)c2CN1/C(N)=N/C#N [Compound 365, (S,E)-3-((S)-sec-butyl)-N′-cyano-6-fluoro-2-oxo-1,2,3,5-tetrahydro-4H-pyrido[3,4-e][1,4]diazepine-4-carboximidamide] | 0.19 µM
32 | CC[C@H](C)[C@H]1C(=O)Nc2cncc(F)c2CN1c1c(N)c(=O)c1=O [Compound 366, 3-amino-4-((S)-3-((S)-sec-butyl)-6-fluoro-2-oxo-1,2,3,5-tetrahydro-4H-pyrido[3,4-e][1,4]diazepin-4-yl)cyclobut-3-ene-1,2-dione] | 0.21 µM

From patent US12441691B2 (Cytokinetics, Inc., priority 2020, dated 2025)
